{"source": "patent US4179519A", "about": "“Method and composition for reducing serum lipid levels using p-chlorophenyl p-chlorophenoxyisobutyrate” (priority 1978, dated 1979)", "key": {"[1]": {"experiment": "acute oral toxicity in rats, observed during 14 days", "type": "in vivo, Wistar EOPS rats", "settings": "in vivo, rat, 2000 mg/kg", "description": "(§1) The acute toxicity of the p-chlorophenyl ester of clofibric acid was determined using two species of animals (Swiss EOPS mice and Wistar EOPS rats) by oral administration, the product being administered in a gum preparation. The animals were observed during 14 days."}, "[2]": {"tested_on": "serum and liver lipid levels", "experiment": "hypolipidemic activity in rats on regimen rich in lipids, second set of experiments (Table II)", "type": "in vivo, male Wistar EOPS rats", "description": "(§2) The hypolipidemic activity was determined in rats subjected to a regimen rich in lipids over the course of 2 sets of experiments.\n2. Male Wistar EOPS rats weighing in the neighborhood of 140 g receive a regimen rich in lipids during 21 days. Beginning with the eleventh day, the animals receive either a gum preparation containing the product to be tested or a preparation of 6% gum arabic alone, for 6 days out of 7. After the last feeding, and a subsequent 24 hour fast, the animals are sacrificed. A group of animals submitted to a normal regimen is used as a control. The percentage reductions of lipid levels are calculated using the following equation: [formula]"}, "[3]": {"experiment": "acute oral toxicity in mice, observed during 14 days", "type": "in vivo, Swiss EOPS mice", "settings": "mouse, in vivo, po, 2000 mg/kg", "description": "as §1"}, "Swiss EOPS mice": {"tested_on": "Swiss EOPS mice", "experiment": "acute oral toxicity in mice, observed during 14 days", "type": "in vivo", "settings": "general statement", "description": "as §1"}, "Wistar EOPS rats": {"tested_on": "Wistar EOPS rats", "experiment": "acute oral toxicity in rats, observed during 14 days", "type": "in vivo", "settings": "rat, 2000 mg/kg", "description": "as §1"}, "[4]": {"tested_on": "serum and liver lipid levels", "experiment": "hypolipidemic activity in rats on regimen rich in lipids, first set of experiments (Table I)", "type": "in vivo, conventional male Wistar rats", "description": "as §2\n1. Conventional male Wistar rats weighing 130-150 g were maintained on a regimen rich in lipids for 21 days. At the same time, beginning with the fifteenth day of the regimen, they received a daily dose of either a gum preparation containing the product to be tested or a preparation of 6% gum arabic alone. After a fast of 24 hours, the animals were sacrificed, 22 days after the start of the regimen."}, "[5]": {"experiment": "subchronic toxicity study, blood levels after one month oral administration (Table III)", "type": "in vivo, male Wistar EOPS rats", "set-up": "bilirubin: unit not given here", "description": "A subchronic toxicity study of the p-chlorophenyl ester of clofibric acid was carried out using the following protocol. The product was administered six days a week during the course of a month, by oral administration in a gum preparation, to male Wistar EOPS rats having an average initial weight of 200 g. After the last feeding, the animals were fasted. A blood sample is taken from the abdominal aorta under anesthesia, then the animals are sacrificed. […] The notation NS or S signifies whether the change induced by the product to be tested was statistically nonsignificant or significant."}, "[6]": {"settings": "125 mg/kg/day, regimen rich in lipids"}, "[7]": {"settings": "200 mg/kg/day, regimen rich in lipids"}, "[8]": {"settings": "75 mg/kg/day, regimen rich in lipids"}, "[9]": {"settings": "second dose group, dose not given"}}, "data": [{"smiles": "CC(C)(Oc1ccc(Cl)cc1)C(=O)O", "note": "[clofibric acid, p-chlorophenoxyisobutyric acid, reference compound]", "values": [{"measurement": "mortality at 336 h", "setting": "[1]", "result": 40, "unit": "%"}, {"measurement": "Wt. of liver / Wt of rat", "setting": "[2]; [6]", "result": "6.99 ± 0.75"}, {"measurement": "liver cholesterol level", "setting": "[2]; [6]", "result": "127.0 mg/g of liver"}, {"measurement": "liver total lipids level", "setting": "[2]; [6]", "result": "382.7 mg/g of liver"}, {"measurement": "liver triglycerides % reduction", "setting": "[2]; [6]", "result": 65, "unit": "%"}, {"measurement": "liver triglycerides level", "setting": "[2]; [6]", "result": "20.33 mg/g of liver"}, {"measurement": "serum cholesterol % reduction", "setting": "[2]; [6]", "result": 54, "unit": "%"}, {"measurement": "serum cholesterol concentration", "setting": "[2]; [6]", "result": 2.31, "unit": "g/L"}, {"measurement": "serum total lipids % reduction", "setting": "[2]; [6]", "result": 46, "unit": "%"}, {"measurement": "serum total lipids concentration", "setting": "[2]; [6]", "result": "4.97 ± 1.41", "unit": "g/L"}, {"measurement": "serum triglycerides concentration", "setting": "[2]; [6]", "result": "0.23 ± 0.04", "unit": "g/L"}]}, {"smiles": "CC(C)(Oc1ccc(Cl)cc1)C(=O)Oc1ccc(Cl)cc1", "note": "[p-chlorophenyl ester of clofibric acid, p-chlorophenyl 2-(p-chlorophenoxy)-2-methylpropionate]", "values": [{"measurement": "mortality at 336 h", "setting": "[3]", "result": 10, "unit": "%"}, {"measurement": "toxicity", "setting": "Swiss EOPS mice", "result": "very low toxicity"}, {"measurement": "mortality", "setting": "Wistar EOPS rats", "result": "did not result in any mortality"}, {"measurement": "significance of reductions in blood and liver levels", "setting": "[4]; 200 mg/kg/day, Table I", "result": "significant"}, {"measurement": "liver total lipids % reduction", "setting": "[4]; [7]", "result": 56, "unit": "%"}, {"measurement": "liver total lipids level", "setting": "[4]; [7]", "result": "60.82 ± 26.98 mg/g of liver"}, {"measurement": "serum cholesterol % reduction", "setting": "[4]; [7]", "result": 69, "unit": "%"}, {"measurement": "serum cholesterol concentration", "setting": "[4]; [7]", "result": "1.33 ± 0.33", "unit": "g/L"}, {"measurement": "serum total lipids % reduction", "setting": "[4]; [7]", "result": 81, "unit": "%"}, {"measurement": "serum total lipids concentration", "setting": "[4]; [7]", "result": "3.87 ± 0.65", "unit": "g/L"}, {"measurement": "hypolipidemic activity compared with clofibric acid and nicotinic acid", "setting": "[4]; general statement, total serum lipid and serum cholesterol levels", "result": "significantly superior to that of both clofibric acid and nicotinic acid"}, {"measurement": "Wt. of liver / Wt of rat", "setting": "[2]; [8]", "result": "6.08 ± 0.31"}, {"measurement": "liver cholesterol level", "setting": "[2]; [8]", "result": "123.0 mg/g of liver"}, {"measurement": "liver total lipids level", "setting": "[2]; [8]", "result": "323.9 mg/g of liver"}, {"measurement": "liver triglycerides % reduction", "setting": "[2]; [8]", "result": 48, "unit": "%"}, {"measurement": "liver triglycerides level", "setting": "[2]; [8]", "result": "23.37 mg/g of liver"}, {"measurement": "serum cholesterol % reduction", "setting": "[2]; [8]", "result": 32, "unit": "%"}, {"measurement": "serum cholesterol concentration", "setting": "[2]; [8]", "result": 3.06, "unit": "g/L"}, {"measurement": "serum total lipids % reduction", "setting": "[2]; [8]", "result": 34, "unit": "%"}, {"measurement": "serum total lipids concentration", "setting": "[2]; [8]", "result": "5.56 ± 2.83", "unit": "g/L"}, {"measurement": "serum triglycerides concentration", "setting": "[2]; [8]", "result": "0.39 ± 0.06", "unit": "g/L"}, {"measurement": "Wt. of liver / Wt of rat", "setting": "[2]; [6]", "result": "6.36 ± 0.31"}, {"measurement": "liver cholesterol level", "setting": "[2]; [6]", "result": "136.5 mg/g of liver"}, {"measurement": "liver total lipids level", "setting": "[2]; [6]", "result": "361.9 mg/g of liver"}, {"measurement": "liver triglycerides % reduction", "setting": "[2]; [6]", "result": 62, "unit": "%"}, {"measurement": "liver triglycerides level", "setting": "[2]; [6]", "result": "20.84 mg/g of liver"}, {"measurement": "serum cholesterol % reduction", "setting": "[2]; [6]", "result": 69, "unit": "%"}, {"measurement": "serum cholesterol concentration", "setting": "[2]; [6]", "result": 1.79, "unit": "g/L"}, {"measurement": "serum total lipids % reduction", "setting": "[2]; [6]", "result": 74, "unit": "%"}, {"measurement": "serum total lipids concentration", "setting": "[2]; [6]", "result": "3.55 ± 0.77", "unit": "g/L"}, {"measurement": "serum triglycerides concentration", "setting": "[2]; [6]", "result": "0.35 ± 0.06", "unit": "g/L"}, {"measurement": "Wt. of liver / Wt of rat", "setting": "[2]; [7]", "result": "6.70 ± 0.50"}, {"measurement": "liver cholesterol level", "setting": "[2]; [7]", "result": "135.2 mg/g of liver"}, {"measurement": "liver total lipids level", "setting": "[2]; [7]", "result": "382.0 mg/g of liver"}, {"measurement": "liver triglycerides % reduction", "setting": "[2]; [7]", "result": 89, "unit": "%"}, {"measurement": "liver triglycerides level", "setting": "[2]; [7]", "result": "16.20 mg/g of liver"}, {"measurement": "serum cholesterol % reduction", "setting": "[2]; [7]", "result": 67, "unit": "%"}, {"measurement": "serum cholesterol concentration", "setting": "[2]; [7]", "result": 1.84, "unit": "g/L"}, {"measurement": "serum total lipids % reduction", "setting": "[2]; [7]", "result": 69, "unit": "%"}, {"measurement": "serum total lipids concentration", "setting": "[2]; [7]", "result": "3.81 ± 0.97", "unit": "g/L"}, {"measurement": "serum triglycerides concentration", "setting": "[2]; [7]", "result": "0.22 ± 0.06", "unit": "g/L"}, {"measurement": "reduction of serum lipid and cholesterol levels compared with the acid", "setting": "[2]; at equal dosage levels, vs clofibric acid", "result": "reduces serum lipid and cholesterol levels to a greater degree than the acid"}, {"measurement": "increase in liver weight compared with the acid", "setting": "[2]; at equivalent dosage levels, vs clofibric acid", "result": "smaller than when the acid is used, and this difference is statistically significant"}, {"measurement": "weight of the animals' livers", "setting": "[2]; regimen rich in lipids", "result": "increases"}, {"measurement": "alkaline phosphatase", "setting": "[5]; 100 mg/kg/day", "result": "25.0 ± 4.9", "unit": "mU/ml"}, {"measurement": "bilirubin", "setting": "[5]; 100 mg/kg/day", "result": "3.68 ± 0.73"}, {"measurement": "cholesterol", "setting": "[5]; 100 mg/kg/day", "result": "0.47 ± 0.04", "unit": "g/L"}, {"measurement": "glycemia", "setting": "[5]; 100 mg/kg/day", "result": "1.58 ± 0.15", "unit": "g/L"}, {"measurement": "total lipids", "setting": "[5]; 100 mg/kg/day", "result": "2.92 ± 0.54", "unit": "g/L"}, {"measurement": "triglycerides", "setting": "[5]; 100 mg/kg/day", "result": "0.83 ± 0.27", "unit": "g/L"}, {"measurement": "urea", "setting": "[5]; 100 mg/kg/day", "result": "0.42 ± 0.07", "unit": "g/L"}, {"measurement": "alkaline phosphatase", "setting": "[5]; 500 mg/kg/day", "result": "38.4 ± 9.9", "unit": "mU/ml"}, {"measurement": "bilirubin", "setting": "[5]; 500 mg/kg/day", "result": "5.04 ± 1.09"}, {"measurement": "cholesterol", "setting": "[5]; 500 mg/kg/day", "result": "0.32 ± 0.06", "unit": "g/L"}, {"measurement": "glycemia", "setting": "[5]; 500 mg/kg/day", "result": "1.41 ± 0.26", "unit": "g/L"}, {"measurement": "total lipids", "setting": "[5]; 500 mg/kg/day", "result": "2.77 ± 0.42", "unit": "g/L"}, {"measurement": "triglycerides", "setting": "[5]; 500 mg/kg/day", "result": "1.09 ± 0.33", "unit": "g/L"}, {"measurement": "urea", "setting": "[5]; 500 mg/kg/day", "result": "0.40 ± 0.05", "unit": "g/L"}, {"measurement": "alkaline phosphatase", "setting": "[5]; [9]", "result": "33.5± 7.8", "unit": "mU/ml"}, {"measurement": "bilirubin", "setting": "[5]; [9]", "result": "4.82 ± 1.85"}, {"measurement": "cholesterol", "setting": "[5]; [9]", "result": "0.37 ± 0.07", "unit": "g/L"}, {"measurement": "glycemia", "setting": "[5]; [9]", "result": "1.57 ± 0.15", "unit": "g/L"}, {"measurement": "total lipids", "setting": "[5]; [9]", "result": "2.54 ± 0.35", "unit": "g/L"}, {"measurement": "triglycerides", "setting": "[5]; [9]", "result": "0.74 ± 0.1", "unit": "g/L"}, {"measurement": "urea", "setting": "[5]; [9]", "result": "0.34 ± 0.07", "unit": "g/L"}]}]}
